Test [1] can be described thus: in vitro activity of glycoside prodrug (preliminary). To be noted: preliminary results.
The nature of test [2]: in vivo activity of glycoside prodrug (preliminary). To be noted: preliminary results.

As to `OC[C@H]1O[C@@H](OCc2ccc(-c3ccc(-c4cccs4)s3)s2)[C@H](O)[C@@H](O)[C@@H]1O` [β-D-glucoside of 2-hydroxymethyl-∝-terthiophene], in test [1], the in vitro activities result is “retains”. In test [2], the in vivo activities entry is on record as “retains”.

Source of the values: patent publication EP1021178B1, “SELENOPHENE ANTI-TUMOR AGENTS” (Purdue Research Foundation, priority 1996, dated 1997).
